{"source": "patent US20250195472A1", "about": "“Indole Alkaloid as Antineoplastic Agent” (NAPP TECNOLOGIAS, S.A. DE C.V., priority 2021, published 2025)", "key": {"MCF-7 (breast)": {"system": "MCF-7 (breast)", "assay": "Sulforhodamine B growth inhibition, MCF-7 (breast)", "type": "cell-based, human", "conditions": "for inhibition at 100 µM: Homo sapiens, MCF7, read-out: Growth inhibition by cell line (%) MCF-7", "description": "(§1) For the evaluation of the cytotoxic effect of Andranone on neoplastic cells, 6 cell lines were used:\n(§2) HCT-15 (colon), MCF-7 (breast), K-562 (leukemia), U-251 (central nervous system), PC-3 (prostate), SKUL (lung) and COST-7 (cervical uterus) from the National Cancer Institute (NCI) of the United States. The cytotoxicity of Andranone was determined in sixfold microcultures using preferable Andranone concentrations between 0.1 and 1.0 μM, more specifically between 0.1 and 0.6 μM and mostly between 0.1 and 0.3 μM. Cell viability and growth were measured indirectly by the sulforhodamine B method according to procedures validated by the NCI, using salicylic acid and Mezalasin as negative control compounds, and Cis-platinum as a control antineoplastic drug at concentrations of 100 μM."}, "SKUL (lung)": {"system": "SKUL (lung)", "assay": "Sulforhodamine B growth inhibition, SKUL (lung)", "type": "cell-based, human", "conditions": "for inhibition at 100 µM: Homo sapiens, read-out: Growth inhibition by cell line (%) SKUL", "description": "as §1, §2"}, "[1]": {"system": "U-251 (central nervous system)", "assay": "Sulforhodamine B growth inhibition, U-251 (central nervous system)", "type": "cell-based, human", "conditions": "for inhibition at 100 µM: Homo sapiens, U-251, read-out: Growth inhibition by cell line (%) U-251", "description": "as §1, §2"}, "K-562 (leukemia)": {"system": "K-562 (leukemia)", "assay": "Sulforhodamine B growth inhibition, K-562 (leukemia)", "type": "cell-based, human", "conditions": "for inhibition at 100 µM: Homo sapiens, K562, read-out: Growth inhibition by cell line (%) K-562", "description": "as §1, §2"}, "COST-7 (cervical uterus)": {"system": "COST-7 (cervical uterus)", "assay": "Sulforhodamine B growth inhibition, COST-7 (cervical uterus)", "type": "cell-based, human", "conditions": "for inhibition at 100 µM: Homo sapiens, read-out: Growth inhibition by cell line (%) COST-7", "description": "as §1, §2"}, "HCT-15 (colon)": {"system": "HCT-15 (colon)", "assay": "Sulforhodamine B growth inhibition, HCT-15 (colon)", "type": "cell-based, human", "conditions": "for inhibition at 100 µM: Homo sapiens, HCT-15, read-out: Growth inhibition by cell line (%) HTC-15", "description": "as §1, §2"}, "PC-3 (prostate)": {"system": "PC-3 (prostate)", "assay": "Sulforhodamine B growth inhibition, PC-3 (prostate)", "type": "cell-based, human", "conditions": "for inhibition at 100 µM: Homo sapiens, read-out: Growth inhibition by cell line (%) PC-3", "description": "as §1, §2"}, "[2]": {"system": "human peripheral blood lymphocytes", "assay": "Micronucleus test in human peripheral blood lymphocytes", "type": "cell-based", "description": "[…] At 44 h, cytochalasin B (4.5 μg/mL) was added to all cultures and at 72 h the lymphocytes were harvested by centrifugation at 1500 rpm for 10 min. The cell bud was divided into 2 parts, one to perform the micronucleus test and the other was kept in PBS (pH 7.5) at −80° C. to perform the RT-qPCR tests.\nFor the micronucleus test, the first part of the cell bud was prefixed with 1 mL of Carnoy's fixative (3:1) and centrifuged at 1500 rpm for 10 min. The supernatant was removed, and the cell bud was resuspended. 5 mL of Carnoy fixative was added and centrifuged again at 1500 rpm for 10 min. This step was repeated 2 more times. Lamellae were made on slides using the drip technique and allowed to air dry. The samples were stained in 5% Giemsa dye and analyzed in the optical microscope at 40× to determine the frequency of micronuclei in 1000 cells (in duplicate)."}, "A-549 (Lung carcinoma)": {"system": "A-549 (Lung carcinoma)", "assay": "In vitro cytotoxic activity IC50, A-549", "type": "cell-based, human", "from_the_text": "(§3) Additionally, the cytotoxic activity was weighted by the IC50 of Andranone on 12 cell lines of neuronal origin, PFSK-1 (brain, cerebral hemisphere); A-172 (Glioblastoma, patient); SW1088 (Brain Fibroblast); Daoy (Brain, Cerebellum); 1321N1 (Normal brain cells) HT-29 (Colorectal Carcinoma); SW-620 (Colorectal carcinoma); H-358 (Lung carcinoma); A-549 (Lung carcinoma); LA-N-5 (Neuroblastoma); SK—N-SH (Neuroblastoma); and L-929 (Mouse fibrosarcoma) using Bevacizumab as a control. The IC50 determination of Andranone was carried out in microcultures in sixfold."}, "A-172 (Glioblastoma)": {"system": "A-172 (Glioblastoma)", "assay": "In vitro cytotoxic activity IC50, A-172", "type": "cell-based, human", "from_the_text": "as §3"}, "[3]": {"system": "1321N1 (Normal brain cells)", "assay": "In vitro cytotoxic activity IC50, 1321N1", "type": "cell-based, human", "from_the_text": "as §3"}, "H-358 (Lung carcinoma)": {"system": "H-358 (Lung carcinoma)", "assay": "In vitro cytotoxic activity IC50, H-358", "type": "cell-based, human", "from_the_text": "as §3"}, "[4]": {"system": "PFSK-1 (brain, cerebral hemisphere)", "assay": "In vitro cytotoxic activity IC50, PFSK-1", "type": "cell-based, human", "from_the_text": "as §3"}, "Daoy (Brain, Cerebellum)": {"system": "Daoy (Brain, Cerebellum)", "assay": "In vitro cytotoxic activity IC50, Daoy", "type": "cell-based, human", "from_the_text": "as §3"}, "[5]": {"system": "SW1088 (Brain Fibroblast)", "assay": "In vitro cytotoxic activity IC50, SW1088", "type": "cell-based, human", "from_the_text": "as §3"}, "[6]": {"system": "SW-620 (Colorectal carcinoma)", "assay": "In vitro cytotoxic activity IC50, SW-620", "type": "cell-based, human", "from_the_text": "as §3"}, "[7]": {"system": "HT-29 (Colorectal Carcinoma)", "assay": "In vitro cytotoxic activity IC50, HT-29", "type": "cell-based, human", "from_the_text": "as §3"}, "LA-N-5 (Neuroblastoma)": {"system": "LA-N-5 (Neuroblastoma)", "assay": "In vitro cytotoxic activity IC50, LA-N-5", "type": "cell-based, human", "from_the_text": "as §3"}, "[8]": {"system": "L-929 (Mouse fibrosarcoma)", "assay": "In vitro cytotoxic activity IC50, L-929", "type": "cell-based", "from_the_text": "as §3"}, "SK-N-SH (Neuroblastoma)": {"system": "SK-N-SH (Neuroblastoma)", "assay": "In vitro cytotoxic activity IC50, SK-N-SH", "type": "cell-based, human", "from_the_text": "as §3"}, "U-251 cell line": {"system": "U-251 cell line", "assay": "Fluorescence analysis of effect on the cell membrane", "type": "cell-based, human", "conditions": "high and low concentration (10 and 100 μM)", "description": "To determine the Andranone action mechanism on neoplastic cells, a fluorescence analysis was performed on cells of the U-251 cell line treated with 10 and 100 μM of cis-platinum and 0.1 and 0.2 μM of Andranone."}}}
{"compound": "O=C(O)c1ccccc1O", "note": "[Salicylic acid]", "values": [{"measurement": "inhibition at 100 µM", "setting": "MCF-7 (breast)", "value": 4.9, "unit": "%"}, {"measurement": "inhibition at 100 µM", "setting": "SKUL (lung)", "value": 10.1, "unit": "%"}, {"measurement": "inhibition at 100 µM", "setting": "[1]", "value": 6.8, "unit": "%"}, {"measurement": "inhibition at 100 µM", "setting": "K-562 (leukemia)", "value": 6.6, "unit": "%"}, {"measurement": "inhibition at 100 µM", "setting": "COST-7 (cervical uterus)", "value": 11.2, "unit": "%"}, {"measurement": "inhibition at 100 µM", "setting": "HCT-15 (colon)", "value": "< 3.1", "unit": "%"}, {"measurement": "inhibition at 100 µM", "setting": "PC-3 (prostate)", "value": 6.9, "unit": "%"}]}
{"compound": "Bleomycin", "values": [{"measurement": "IDN", "setting": "[2]; Bleomycin 3.2 μg/mL", "value": "1.60 ± 0.06"}, {"measurement": "IPBC", "setting": "[2]; Bleomycin 3.2 mg/mL", "value": "1.56 ± 0.05"}, {"measurement": "Relative cytotoxicity (%)", "setting": "[2]; Bleomycin 3.2 mg/mL", "value": 34.50, "unit": "%"}, {"measurement": "frequency of MN", "setting": "[2]; positive control, 3.2 μg/mL, 72 h", "value": "significantly increased"}]}
{"compound": "Bevacizumab: Bevacizumab used as a control in the IC50 determination", "values": [{"measurement": "IC50", "setting": "A-549 (Lung carcinoma)", "value": 105, "unit": "µM"}, {"measurement": "IC50", "setting": "A-172 (Glioblastoma)", "value": 41.4, "unit": "µM"}, {"measurement": "IC50", "setting": "[3]", "value": 39.5, "unit": "µM"}, {"measurement": "IC50", "setting": "H-358 (Lung carcinoma)", "value": 115, "unit": "µM"}, {"measurement": "IC50", "setting": "[4]", "value": 31.2, "unit": "µM"}, {"measurement": "IC50", "setting": "Daoy (Brain, Cerebellum)", "value": 29.4, "unit": "µM"}, {"measurement": "IC50", "setting": "[5]", "value": 47.3, "unit": "µM"}, {"measurement": "IC50", "setting": "[6]", "value": 27.2, "unit": "µM"}, {"measurement": "IC50", "setting": "[7]", "value": 38.4, "unit": "µM"}, {"measurement": "IC50", "setting": "LA-N-5 (Neuroblastoma)", "value": 79.3, "unit": "µM"}, {"measurement": "IC50", "setting": "[8]", "value": 126, "unit": "µM"}, {"measurement": "IC50", "setting": "SK-N-SH (Neuroblastoma)", "value": 88.4, "unit": "µM"}]}
{"compound": "N.N.[Cl][Pt][Cl]", "note": "[Cisplatin]", "values": [{"measurement": "Growth inhibition by cell line (%) MCF-7", "setting": "MCF-7 (breast); 100 μM", "value": 42.65, "unit": "%"}, {"measurement": "Growth inhibition by cell line (%) SKUL", "setting": "SKUL (lung); 100 μM", "value": 81.35, "unit": "%"}, {"measurement": "Growth inhibition by cell line (%) U-251", "setting": "[1]; 100 μM", "value": 65.9, "unit": "%"}, {"measurement": "Growth inhibition by cell line (%) K-562", "setting": "K-562 (leukemia); 100 μM", "value": 79.15, "unit": "%"}, {"measurement": "Growth inhibition by cell line (%) COST-7", "setting": "COST-7 (cervical uterus); 100 μM", "value": 43.39, "unit": "%"}, {"measurement": "Growth inhibition by cell line (%) HTC-15", "setting": "HCT-15 (colon); 100 μM", "value": 87.49, "unit": "%"}, {"measurement": "Growth inhibition by cell line (%) PC-3", "setting": "PC-3 (prostate); 100 μM", "value": 32.42, "unit": "%"}, {"measurement": "fluorescence analysis, cell membrane / cell death", "setting": "U-251 cell line", "value": "cell membrane alteration without being so obvious"}]}
{"compound": "Nc1ccc(O)c(C(=O)O)c1", "note": "[Mesalazine]", "values": [{"measurement": "inhibition at 100 µM", "setting": "MCF-7 (breast)", "value": 11.9, "unit": "%"}, {"measurement": "inhibition at 100 µM", "setting": "SKUL (lung)", "value": "< 3.1", "unit": "%"}, {"measurement": "inhibition at 100 µM", "setting": "[1]", "value": 6.3, "unit": "%"}, {"measurement": "inhibition at 100 µM", "setting": "K-562 (leukemia)", "value": 8.1, "unit": "%"}, {"measurement": "inhibition at 100 µM", "setting": "COST-7 (cervical uterus)", "value": "< 3.1", "unit": "%"}, {"measurement": "inhibition at 100 µM", "setting": "HCT-15 (colon)", "value": "< 3.1", "unit": "%"}, {"measurement": "inhibition at 100 µM", "setting": "PC-3 (prostate)", "value": 3.1, "unit": "%"}]}
